The source of these data is patent US12611453B2, “Method of inducing an HIV-1-specific immune response using a chimpanzee adenovirus vector encoding an hivacat t-cell immunogen and TLR7 agonist” (Gilead Sciences, Inc., priority 2019, dated 2026).

Holding throughout (type): in vitro ADME
The target in series [1] is T1, breast cancer resistance protein (Homo sapiens, UniProt Q9UNQ0).
T1 sequence (Q9UNQ0 1-655): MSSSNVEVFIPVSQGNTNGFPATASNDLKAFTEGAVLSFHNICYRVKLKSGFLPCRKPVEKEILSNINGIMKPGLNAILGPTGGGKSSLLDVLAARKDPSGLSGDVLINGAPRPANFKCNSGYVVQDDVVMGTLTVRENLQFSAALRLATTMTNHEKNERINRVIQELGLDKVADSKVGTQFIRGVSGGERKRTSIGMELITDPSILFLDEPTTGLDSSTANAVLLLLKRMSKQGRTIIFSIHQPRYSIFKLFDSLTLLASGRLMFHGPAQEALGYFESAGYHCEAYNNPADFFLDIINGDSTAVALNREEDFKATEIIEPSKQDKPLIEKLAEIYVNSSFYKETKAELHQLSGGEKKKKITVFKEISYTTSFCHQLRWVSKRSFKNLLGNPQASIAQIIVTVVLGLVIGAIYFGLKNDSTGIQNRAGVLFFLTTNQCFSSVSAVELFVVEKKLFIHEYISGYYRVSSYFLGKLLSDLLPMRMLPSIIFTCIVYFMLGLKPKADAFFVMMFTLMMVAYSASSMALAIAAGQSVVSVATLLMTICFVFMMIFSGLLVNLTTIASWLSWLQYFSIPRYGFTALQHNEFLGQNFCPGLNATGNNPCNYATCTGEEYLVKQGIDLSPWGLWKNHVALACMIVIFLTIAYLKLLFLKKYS
Description: in vitro breast cancer resistance protein substrate assessment. The text has this:
(§1) Any ART agents known to inhibit or induce CYP3A, P-glycoprotein, or breast cancer resistance protein are excluded from use in this study during treatment (Period 1). For those participants who may be on a regimen including one of these medications, a regimen switch from one of the prohibited medication to an allowed medication is permitted between the screening and baseline visits. The following agents are excluded from the ART regimen during the study: HIV protease inhibitors (including low-dose ritonavir), cobicistat-containing regimens, elvitegravir, efavirenz, etravirine, and nevirapine.

For series [2], the target named is cytochrome P450 (CYP) 3A4 enzyme (CYP3A) (Homo sapiens, UniProt P08684). Description: in vitro metabolism by cytochrome P450 3A4.
Chain of cytochrome P450 (CYP) 3A4 enzyme (CYP3A) (P08684 whole entry): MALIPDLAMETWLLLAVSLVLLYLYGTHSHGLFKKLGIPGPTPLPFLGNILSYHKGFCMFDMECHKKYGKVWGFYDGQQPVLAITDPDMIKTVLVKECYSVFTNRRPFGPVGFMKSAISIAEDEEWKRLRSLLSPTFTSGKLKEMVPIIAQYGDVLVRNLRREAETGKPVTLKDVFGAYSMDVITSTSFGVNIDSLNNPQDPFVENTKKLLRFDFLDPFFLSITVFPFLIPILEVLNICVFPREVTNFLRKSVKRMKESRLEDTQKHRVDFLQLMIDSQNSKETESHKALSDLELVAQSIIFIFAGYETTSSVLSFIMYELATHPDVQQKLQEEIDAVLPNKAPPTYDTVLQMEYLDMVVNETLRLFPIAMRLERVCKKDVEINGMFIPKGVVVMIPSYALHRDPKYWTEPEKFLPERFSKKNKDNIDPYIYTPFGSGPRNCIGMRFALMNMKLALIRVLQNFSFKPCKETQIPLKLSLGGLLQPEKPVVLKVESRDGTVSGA
Text: as §1

The next series addresses T2, CYP2C8 (Homo sapiens, UniProt P10632).
T2 sequence (P10632 1-490): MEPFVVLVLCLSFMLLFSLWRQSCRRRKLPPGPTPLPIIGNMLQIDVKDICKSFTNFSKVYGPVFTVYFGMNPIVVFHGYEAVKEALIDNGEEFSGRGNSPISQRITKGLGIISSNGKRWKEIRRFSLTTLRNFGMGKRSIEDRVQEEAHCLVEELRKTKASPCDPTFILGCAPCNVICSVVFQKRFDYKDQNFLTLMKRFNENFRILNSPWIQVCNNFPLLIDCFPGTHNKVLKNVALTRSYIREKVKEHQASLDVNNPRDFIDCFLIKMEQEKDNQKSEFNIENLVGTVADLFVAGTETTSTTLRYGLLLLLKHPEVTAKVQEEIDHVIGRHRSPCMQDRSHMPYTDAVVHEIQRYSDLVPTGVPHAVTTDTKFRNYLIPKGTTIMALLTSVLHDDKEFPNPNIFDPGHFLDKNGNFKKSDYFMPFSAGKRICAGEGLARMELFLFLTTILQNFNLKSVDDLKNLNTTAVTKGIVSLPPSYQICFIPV
In words: in vitro metabolism by CYP2C8.
Text: as §1

The target of a further series is P-glycoprotein (Homo sapiens, UniProt P08183). In words: in vitro P-glycoprotein substrate assessment.
Chain of P-glycoprotein (P08183 whole entry): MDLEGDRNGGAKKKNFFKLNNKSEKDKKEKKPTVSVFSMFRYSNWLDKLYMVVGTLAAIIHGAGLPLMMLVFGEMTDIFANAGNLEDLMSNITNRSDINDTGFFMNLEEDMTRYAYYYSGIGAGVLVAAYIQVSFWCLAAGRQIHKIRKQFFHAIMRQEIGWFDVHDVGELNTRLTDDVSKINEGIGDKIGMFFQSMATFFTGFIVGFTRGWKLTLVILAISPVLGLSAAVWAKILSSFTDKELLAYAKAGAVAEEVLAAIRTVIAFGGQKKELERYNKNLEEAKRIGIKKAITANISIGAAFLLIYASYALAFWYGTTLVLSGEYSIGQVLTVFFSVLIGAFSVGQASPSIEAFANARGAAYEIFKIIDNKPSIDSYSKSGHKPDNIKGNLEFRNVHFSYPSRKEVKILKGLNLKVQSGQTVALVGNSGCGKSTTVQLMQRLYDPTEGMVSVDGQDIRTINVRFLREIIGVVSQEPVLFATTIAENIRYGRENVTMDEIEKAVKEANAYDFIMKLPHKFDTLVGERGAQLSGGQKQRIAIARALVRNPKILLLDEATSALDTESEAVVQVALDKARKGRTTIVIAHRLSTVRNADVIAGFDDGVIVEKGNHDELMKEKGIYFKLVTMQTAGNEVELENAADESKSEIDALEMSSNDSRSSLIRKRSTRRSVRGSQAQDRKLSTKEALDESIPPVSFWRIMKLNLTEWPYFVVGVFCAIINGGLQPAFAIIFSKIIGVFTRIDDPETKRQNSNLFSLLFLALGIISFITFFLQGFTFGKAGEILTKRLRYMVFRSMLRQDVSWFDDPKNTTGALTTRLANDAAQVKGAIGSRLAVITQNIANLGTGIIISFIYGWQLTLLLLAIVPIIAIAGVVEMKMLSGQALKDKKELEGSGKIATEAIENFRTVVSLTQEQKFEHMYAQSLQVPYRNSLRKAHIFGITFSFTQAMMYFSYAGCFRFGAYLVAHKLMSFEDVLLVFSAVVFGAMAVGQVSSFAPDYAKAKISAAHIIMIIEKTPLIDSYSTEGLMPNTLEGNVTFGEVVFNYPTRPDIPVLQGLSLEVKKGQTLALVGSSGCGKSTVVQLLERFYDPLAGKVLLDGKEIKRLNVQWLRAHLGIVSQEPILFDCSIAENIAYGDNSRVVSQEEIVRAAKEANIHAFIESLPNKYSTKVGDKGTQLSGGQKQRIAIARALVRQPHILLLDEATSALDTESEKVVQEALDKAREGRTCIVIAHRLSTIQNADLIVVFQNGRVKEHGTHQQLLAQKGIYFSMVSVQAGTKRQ
Text: as §1

For the next series, the target named is CYP2D6 (Homo sapiens, UniProt P10635). In words: in vitro metabolism by CYP2D6.
Chain of CYP2D6 (P10635 whole entry): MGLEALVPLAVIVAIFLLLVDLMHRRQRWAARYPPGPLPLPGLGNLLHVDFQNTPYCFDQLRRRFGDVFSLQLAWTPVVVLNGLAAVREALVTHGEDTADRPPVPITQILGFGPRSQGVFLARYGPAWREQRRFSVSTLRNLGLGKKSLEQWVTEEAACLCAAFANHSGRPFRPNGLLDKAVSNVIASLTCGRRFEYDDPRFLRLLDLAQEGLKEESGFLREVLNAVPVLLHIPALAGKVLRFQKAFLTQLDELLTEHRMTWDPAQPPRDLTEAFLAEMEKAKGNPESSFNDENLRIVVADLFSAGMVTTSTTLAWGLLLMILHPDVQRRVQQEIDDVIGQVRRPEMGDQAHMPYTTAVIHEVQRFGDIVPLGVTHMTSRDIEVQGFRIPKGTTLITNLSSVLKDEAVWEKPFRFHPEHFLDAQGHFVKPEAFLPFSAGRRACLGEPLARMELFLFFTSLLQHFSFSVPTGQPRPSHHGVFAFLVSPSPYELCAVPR

With `CCCCOc1nc(N)c2c(n1)N(Cc1cccc(CN3CCCC3)c1)CC(=O)N2` [compound of Formula (I)], the “substrate of breast cancer resistance protein” value in series [1] is “substrate”. In addition, the “metabolism by CYP3A4 (contribution to metabolism)” value in series [2] is given as “predominantly metabolized”. The “metabolism by CYP2C8 (contribution to metabolism)” value at CYP2C8 is given as “minor contributions”. For the same compound, the “substrate of P-glycoprotein” value on P-glycoprotein is “substrate”. Also, the “metabolism by CYP2D6 (contribution to metabolism)” value at CYP2D6 is reported as “minor contributions”.
